Reference: ChEMBL document CHEMBL1146921, “Synthesis and antibacterial activity of 6-O-heteroarylcarbamoyl-11,12-lactoketolides” (2006)
Converted amounts (≈) assume the structure as drawn.

Experiments:
Type in all cases: functional
Staphylococcus aureus [1] = assay: Antibacterial activity against Staphylococcus aureus Smith OC4172 in presence of 50% mouse serum
Haemophilus influenzae = assay: Antibacterial activity against Haemophilus influenzae OC4882
Staphylococcus aureus [2] = assay: Antibacterial activity against Staphylococcus aureus Smith OC4172
Streptococcus pneumoniae [3] = assay: Antibacterial activity against erythromycin-susceptible Streptococcus pneumoniae ATCC 6301
Streptococcus pneumoniae [4] = assay: Antibacterial activity against erythromycin-resistant Streptococcus pneumoniae OC4051
Streptococcus pneumoniae [5] = assay: Antibacterial activity against erythromycin-resistant Streptococcus pneumoniae OC4421

| SMILES | MIC (Staphylococcus aureus [1]) [mg/L] | MIC (Haemophilus influenzae) [mg/L] | MIC (Staphylococcus aureus [2]) [mg/L] | MIC (Streptococcus pneumoniae [3]) [mg/L] | MIC (Streptococcus pneumoniae [4]) [mg/L] | MIC (Streptococcus pneumoniae [5]) [mg/L] |
| --- | --- | --- | --- | --- | --- | --- |
| CC[C@H]1OC(=O)[C@H](C)C(=O)[C@H](C)[C@@H](O[C@@H]2O[C@H](C)C[C@H](N(C)C)[C@H]2O)[C@](C)(OC(=O)NC/C=C/c2cccc(-c3ncccn3)c2)C[C@@H](C)C(=O)[C@H](C)[C@H]2CC(=O)O[C@@]21C | 2 | 4 (≈ 4.79 µM) | 0.5 (≈ 0.599 µM) | 0.06 (≈ 0.0719 µM) | 0.25 (≈ 0.299 µM) | 0.5 (≈ 0.599 µM) |
| CC[C@H]1OC(=O)[C@H](C)C(=O)[C@H](C)[C@@H](O[C@@H]2O[C@H](C)C[C@H](N(C)C)[C@H]2O)[C@](C)(OC(=O)NCc2cnc3ccccc3c2)C[C@@H](C)C(=O)[C@H](C)[C@H]2CC(=O)O[C@@]21C | 4 | 8 (≈ 10.2 µM) | 0.5 (≈ 0.639 µM) | 0.06 (≈ 0.0767 µM) | 0.5 (≈ 0.639 µM) | 0.5 (≈ 0.639 µM) |
| CC[C@H]1OC(=O)[C@H](C)C(=O)[C@H](C)[C@@H](O[C@@H]2O[C@H](C)C[C@H](N(C)C)[C@H]2O)[C@](C)(OC(=O)NCc2ccc(-c3ccccn3)cc2)C[C@@H](C)C(=O)[C@H](C)[C@H]2CC(=O)O[C@@]21C | 8 | 16 (≈ 19.8 µM) | 1 (≈ 1.24 µM) | 0.03 (≈ 0.0371 µM) | 0.25 (≈ 0.309 µM) | 0.5 (≈ 0.619 µM) |
| CC[C@H]1OC(=O)[C@H](C)C(=O)[C@H](C)[C@@H](O[C@@H]2O[C@H](C)C[C@H](N(C)C)[C@H]2O)[C@](C)(OC(=O)NC/C=C/c2ccc3nccnc3c2)C[C@@H](C)C(=O)[C@H](C)[C@H]2CC(=O)O[C@@]21C | 2 | 4 (≈ 4.94 µM) | 0.5 (≈ 0.618 µM) | 0.03 (≈ 0.0371 µM) | 0.25 (≈ 0.309 µM) | 0.5 (≈ 0.618 µM) |
| CC[C@H]1OC(=O)[C@H](C)C(=O)[C@H](C)[C@@H](O[C@@H]2O[C@H](C)C[C@H](N(C)C)[C@H]2O)[C@](C)(OC(=O)NC/C=C/c2cnc3ccccc3c2)C[C@@H](C)C(=O)[C@H](C)[C@H]2CC(=O)O[C@@]21C | 2 | 8 (≈ 9.9 µM) | 0.5 (≈ 0.619 µM) | ≤ 0.015 | 0.12 (≈ 0.149 µM) | 0.25 (≈ 0.309 µM) |
| CC[C@H]1OC(=O)[C@H](C)C(=O)[C@H](C)[C@@H](O[C@@H]2O[C@H](C)C[C@H](N(C)C)[C@H]2O)[C@](C)(OC(=O)NC/C=C/c2ccc(-c3ncccn3)cc2)C[C@@H](C)C(=O)[C@H](C)[C@H]2NC(=O)O[C@@]21C | 0.25 | 4 (≈ 4.78 µM) | 0.12 (≈ 0.144 µM) | 0.03 (≈ 0.0359 µM) | 0.06 (≈ 0.0718 µM) | 0.06 (≈ 0.0718 µM) |
| CC[C@H]1OC(=O)[C@H](C)C(=O)[C@H](C)[C@@H](O[C@@H]2O[C@H](C)C[C@H](N(C)C)[C@H]2O)[C@](C)(OC(=O)NC/C=C/c2ccc(-c3ccccc3)nc2)C[C@@H](C)C(=O)[C@H](C)[C@H]2CC(=O)O[C@@]21C | 2 | 8 (≈ 9.59 µM) | 0.5 (≈ 0.6 µM) | – | 0.5 (≈ 0.6 µM) | 0.5 (≈ 0.6 µM) |
| CC[C@H]1OC(=O)[C@H](C)C(=O)[C@H](C)[C@@H](O[C@@H]2O[C@H](C)C[C@H](N(C)C)[C@H]2O)[C@](C)(OC(=O)NC/C=C/c2ccc(-c3ccccn3)cc2)C[C@@H](C)C(=O)[C@H](C)[C@H]2CC(=O)O[C@@]21C | 2 | 8 (≈ 9.59 µM) | 0.5 (≈ 0.6 µM) | 0.06 (≈ 0.0719 µM) | 0.25 (≈ 0.3 µM) | 0.5 (≈ 0.6 µM) |
| CC[C@H]1OC(=O)[C@H](C)C(=O)[C@H](C)[C@@H](O[C@@H]2O[C@H](C)C[C@H](N(C)C)[C@H]2O)[C@](C)(OC)C[C@@H](C)C(=O)[C@H](C)[C@H]2N(CCCCn3cnc(-c4cccnc4)c3)C(=O)O[C@]12C [TELITHROMYCIN] | 0.5 | 2 (≈ 2.46 µM) | 0.12 (≈ 0.148 µM) | 0.015 (≈ 0.0185 µM) | 0.06 (≈ 0.0739 µM) | 0.12 (≈ 0.148 µM) |
| CC[C@H]1OC(=O)[C@H](C)C(=O)[C@H](C)[C@@H](O[C@@H]2O[C@H](C)C[C@H](N(C)C)[C@H]2O)[C@](C)(OC(=O)NC/C=C/c2cncc3ccccc23)C[C@@H](C)C(=O)[C@H](C)[C@H]2CC(=O)O[C@@]21C | 4 | 4 (≈ 4.95 µM) | 0.5 (≈ 0.619 µM) | ≤ 0.015 | 0.25 (≈ 0.309 µM) | 0.25 (≈ 0.309 µM) |
| CC[C@H]1OC(=O)[C@H](C)C(=O)[C@H](C)[C@@H](O[C@@H]2O[C@H](C)C[C@H](N(C)C)[C@H]2O)[C@](C)(OC(=O)NCc2ccc3ncccc3c2)C[C@@H](C)C(=O)[C@H](C)[C@H]2CC(=O)O[C@@]21C | 4 | 8 (≈ 10.2 µM) | 1 (≈ 1.28 µM) | 0.06 (≈ 0.0767 µM) | 2 (≈ 2.56 µM) | 0.5 (≈ 0.639 µM) |
| CC[C@H]1OC(=O)[C@H](C)C(=O)[C@H](C)[C@@H](O[C@@H]2O[C@H](C)C[C@H](N(C)C)[C@H]2O)[C@](C)(OC(=O)NC/C=C/c2ccc(-c3ncccn3)cc2)C[C@@H](C)C(=O)[C@@H](C)[C@H]2CC(=O)O[C@@]21C | 16 | 8 (≈ 9.58 µM) | 2 (≈ 2.4 µM) | 0.12 (≈ 0.144 µM) | 2 (≈ 2.4 µM) | 1 (≈ 1.2 µM) |
| CC[C@H]1OC(=O)[C@H](C)C(=O)[C@H](C)[C@@H](O[C@@H]2O[C@H](C)C[C@H](N(C)C)[C@H]2O)[C@](C)(OC(=O)NC/C=C/c2cccnc2)C[C@@H](C)C(=O)[C@H](C)[C@H]2CC(=O)O[C@@]21C | 1 | 4 (≈ 5.28 µM) | 1 (≈ 1.32 µM) | 0.03 (≈ 0.0396 µM) | 2 (≈ 2.64 µM) | 0.5 (≈ 0.66 µM) |
| CC[C@H]1OC(=O)[C@H](C)C(=O)[C@H](C)[C@@H](O[C@@H]2O[C@H](C)C[C@H](N(C)C)[C@H]2O)[C@](C)(OC(=O)NC/C=C/c2ccc3ncccc3c2)C[C@@H](C)C(=O)[C@H](C)[C@H]2CC(=O)O[C@@]21C | 2 | 2 (≈ 2.48 µM) | 0.5 (≈ 0.619 µM) | 0.03 (≈ 0.0371 µM) | 0.12 (≈ 0.149 µM) | 0.25 (≈ 0.309 µM) |
| CC[C@H]1OC(=O)[C@H](C)C(=O)[C@H](C)[C@@H](O[C@@H]2O[C@H](C)C[C@H](N(C)C)[C@H]2O)[C@](C)(OC(=O)NC/C=C/c2ccc3cccnc3c2)C[C@@H](C)C(=O)[C@H](C)[C@H]2CC(=O)O[C@@]21C | 4 | 2 (≈ 2.48 µM) | 0.25 (≈ 0.309 µM) | 0.03 (≈ 0.0371 µM) | 0.12 (≈ 0.149 µM) | 0.25 (≈ 0.309 µM) |
| CC[C@H]1OC(=O)[C@H](C)C(=O)[C@H](C)[C@@H](O[C@@H]2O[C@H](C)C[C@H](N(C)C)[C@H]2O)[C@](C)(OC(=O)NC/C=C/c2ccc(-c3ncccn3)cc2)C[C@@H](C)C(=O)[C@H](C)[C@H]2CC(=O)O[C@@]21C | 0.5 | 8 (≈ 9.58 µM) | 0.12 (≈ 0.144 µM) | 0.03 (≈ 0.0359 µM) | 0.06 (≈ 0.0719 µM) | 0.25 (≈ 0.299 µM) |
| CC[C@H]1OC(=O)[C@H](C)[C@@H](O[C@H]2C[C@@](C)(OC)[C@@H](O)[C@H](C)O2)[C@H](C)[C@@H](O[C@@H]2O[C@H](C)C[C@H](N(C)C)[C@H]2O)[C@](C)(O)C[C@@H](C)C(=O)[C@H](C)[C@@H](O)[C@]1(C)O [ERYTHROMYCIN] | 0.12 | 8 (≈ 10.9 µM) | 0.5 (≈ 0.681 µM) | 0.06 (≈ 0.0818 µM) | > 16 | 4 (≈ 5.45 µM) |
